In US20090247404A1, “METHOD FOR IMPROVING HARVESTABILITY OF CROPS” (priority 2006, published 2009):

Columns and labels:
Type in all cases: in vivo
[1] = system: cotton (GOSHI, Gossypium hirsutum L.); experiment: Test B1: field trial, preharvest application of harvest aids alone and with Compound 4 to cotton (cv. DP 434); details: for inhibition at 1262 g/ha / inhibition at 5 g/ha / inhibition at 10 g/ha / inhibition at 20 g/ha / inhibition at 421 g/ha: Gossypium hirsutum
Description: A field trial was conducted to evaluate the effects of mixtures of Compound 4 with commercial harvest aids on cotton (GOSHI, Gossypium hirsutum L.). Delta and Pine Land Co. cotton seeds (cv. ‘DP 434’) were planted in mid spring season, 3.8-cm deep in a fine-texture loam soil comprising 40% sand, 36% silt, and 24% clay. Soil organic matter was 1.8%; pH was 6.6. Plots were 9.1 m long by 3.0 m wide with rows spaced 96.5 cm apart. Seeds were spaced 10.2 cm apart within the rows. The field was managed using conventional tillage practices, and applications of herbicides and insecticides were used to maintain a healthy crop. The plots were arranged in a randomized complete block design with each treatment being replicated four times. Treatments were applied preharvest over the top of the crop in late summer, when approximately 65% of the bolls had opened, using a tractor-mounted sprayer delivering a spray volume of 140 L/ha at a pressure of 241 kPa. Treatments consisted of the commercial harvest aids tribufos, ethephon, and ethephon+AMADS alone and in combination with Compound 4, dissolved or suspended in water. Plants were evaluated for harvest aid effects including defoliation and regrowth inhibition at 4, 7, 14, and/or 22 days after application (DAA). Individual results were recorded and data reported as the means of the three replicates.
(§1) Results for Tests A, B1 and B2 are given in Table A, B1 and B2 respectively. Plants were visually evaluated for harvest aid effects of boll opening, defoliation, desiccation, and whole plant (basal and terminal) regrowth inhibition. “State of Defoliation (%)” represents a visual rating at a given DAA of the overall reduction in foliage on treated plants in a plot. It is based on a scale of 0 to 100%, where 0 represents an amount of foliage similar to control plants, and 100 indicates no leaves present. Plant regrowth assessments at a given DAA were made relative to appropriate controls after effects of defoliation were observed. Regrowth of the basal (“plant stalk”, below the top 15.3 cm of the plants) and terminal (“plant terminal”, top 15.3 cm of the plants) portions of the plants were separately evaluated on a visual rating scale of 0 to 100%, where 0 indicates no regrowth, and 100 indicates complete regrowth. The regrowth evaluations involved overall assessment of renewed or continued growth and development, which included: node and internodal development and elongation, and leaf formation, development and growth. These regrowth evaluations were recorded as “Regrowth %” and subsequently converted in the tables to “Regrowth Inhibition (%)”, which was calculated as 100%−YT, where YT equals the mean Regrowth % of three replicates for a respective treatment.

[2] = system: cotton (GOSHI, Gossypium hirsutum L.); experiment: Test B2: field trial, preharvest application of harvest aids alone and with Compound 4 to cotton (cv. DP 117BRIIRF); details: for inhibition at 1262 g/ha / inhibition at 5 g/ha / inhibition at 10 g/ha / inhibition at 20 g/ha / inhibition at 421 g/ha: Gossypium hirsutum, 336 h
Description: A field trial was conducted to evaluate the effects of mixtures of Compound 4 with commercial harvest aids on cotton (GOSHI, Gossypium hirsutum L.). Delta and Pine Land Co. cotton seeds (cv. ‘DP 117BRIIRF’) were planted in mid spring season, 2.0-cm deep in a clay soil. Plots were 12.19 m long by 3.86 m wide with rows spaced 96.5 cm apart. The field was managed using conventional tillage practices, and applications of herbicides and insecticides were used to maintain a healthy crop. The plots were arranged in a randomized complete block design with each treatment being replicated four times. Treatments were applied preharvest over the top of the crop in late summer, when approximately 65% of the bolls had opened, using a tractor-mounted sprayer delivering a spray volume of 140.3 L/ha at a pressure of 193 kPa. Treatments consisted of the commercial harvest aids tribufos, ethephon, and ethephon+AMADS alone and in combination with Compound 4, dissolved or suspended in water. Plants were evaluated for harvest aid effects including defoliation and regrowth inhibition at 4, 7, and 14 DAA. Individual results were recorded and data reported as the means of the three replicates.
as §1

[3] = system: cotton (GOSHI, Gossypium hirsutum L.); experiment: Test A: field trial, preharvest application of harvest aids alone and with Compound 4 to cotton (cv. Fibermax FM 989 RR); details: for Boll Opening (%) / Desiccation (%) / State of Defoliation (%): 841 g a.i./ha
Description: A field trial was conducted to evaluate the effects of mixtures of Compound 4 with commercial harvest aids on cotton (GOSHI, Gossypium hirsutum L.). Cotton seeds (cv. ‘Fibermax FM 989 RR’) were planted in mid spring season, 3.8 cm deep in a clay soil having 1.8% organic matter and a pH of 6.8. Plots were 9 m long by 3 m wide with rows spaced 96.5 cm apart. Seeds were spaced 10.2 cm apart within the rows. The field was managed using conventional tillage practices, and applications of herbicides and insecticides were used to maintain a healthy crop. The plots were arranged in a randomized complete block design with each treatment being replicated three times. Treatments were applied preharvest over the top of the crop in late summer, when approximately 65% of the bolls had opened, using a backpack sprayer delivering a spray volume of 140 L/ha using a pressure of 276 kPa. Treatments consisted of the commercial harvest aids tribufos and ethephon+AMADS alone and in combination with Compound 4, dissolved or suspended in water. The effects on the treated plants and untreated controls were recorded 4, 11 and 21 days after application. Plants were visually evaluated for harvest aid effects of boll opening, defoliation, desiccation, and whole plant (basal and terminal) regrowth inhibition. Results were calculated as the mean of the three replicates, based on a scale of 0 to 100 where 0 is no effect and 100 is complete expression of the effect.
as §1

[4] = treatments including Compound 4
[5] = plant terminal and plant stalk, 14 DAA

O=P(O)(O)CCCl [Ethephon, reference compound]
State of Defoliation (%) ([1]; 1262 g a.i./ha, 4 DAA): 54%
State of Defoliation (%) ([1]; 1262 g a.i./ha, 7 DAA): 73%
State of Defoliation (%) ([1]; 1262 g a.i./ha, 14 DAA): 79%
inhibition at 1262 g/ha ([1]; 336 h, 1262 g a.i./ha, 14 DAA, read-out: Plant Stalk (Below 15.3-cm) Regrowth Inhibition (%)): 90%
inhibition at 1262 g/ha ([1]; 336 h, 1262 g a.i./ha, 14 DAA, read-out: Plant Terminal (Top 15.3-cm) Regrowth Inhibition (%)): 75%
inhibition at 1262 g/ha ([1]; 528 h, 1262 g a.i./ha, 22 DAA, read-out: Plant Stalk (Below 15.3-cm) Regrowth Inhibition (%)): 22%
State of Defoliation (%) ([2]; 1262 g a.i./ha, 4 DAA): 58%
State of Defoliation (%) ([2]; 1262 g a.i./ha, 7 DAA): 63%
State of Defoliation (%) ([2]; 1262 g a.i./ha, 14 DAA): 48%
inhibition at 1262 g/ha ([2]; 1262 g a.i./ha, 14 DAA, read-out: Plant Stalk (Below 15.3-cm) Regrowth Inhibition (%)): 80%
inhibition at 1262 g/ha ([2]; 1262 g a.i./ha, 14 DAA, read-out: Plant Terminal (Top 15.3-cm) Regrowth Inhibition (%)): 60%

COC(=O)c1nc(C2CC2)nc(N)c1Cl [Compound 4, methyl 6-amino-5-chloro-2-cyclopropyl-4-pyrimidinecarboxylate]
desiccation, combination with Compound 4 compared to ethephon+AMADS or tribufos alone ([3]; 11 days after application): increased
defoliation, combination with Compound 4 compared to ethephon+AMADS or tribufos alone ([3]; 21 days after application): dramatically increased
regrowth inhibition, combination with Compound 4 compared to ethephon+AMADS or tribufos alone ([3]; 21 days after application): dramatically increased
boll opening effects of the commercial harvest aids in combination with Compound 4 ([3]; compared to the untreated plants): did not interfere
inhibition of basal and terminal regrowth [3, 4]: effective for inhibiting both basal and terminal regrowth
State of Defoliation (%) ([1]; 5 g a.i./ha, 4 DAA): 13%
State of Defoliation (%) ([1]; 5 g a.i./ha, 7 DAA): 18%
State of Defoliation (%) ([1]; 5 g a.i./ha, 14 DAA): 23%
State of Defoliation (%) ([1]; 10 g a.i./ha, 4 DAA): 8%
State of Defoliation (%) ([1]; 10 g a.i./ha, 7 DAA): 18%
State of Defoliation (%) ([1]; 10 g a.i./ha, 14 DAA): 21%
State of Defoliation (%) ([1]; 20 g a.i./ha, 4 DAA): 13%
State of Defoliation (%) ([1]; 20 g a.i./ha, 7 DAA): 24%
State of Defoliation (%) ([1]; 20 g a.i./ha, 14 DAA): 23%
inhibition at 5 g/ha ([1]; 336 h, 5 g a.i./ha, 14 DAA, read-out: Plant Stalk (Below 15.3-cm) Regrowth Inhibition (%)): 100%
inhibition at 5 g/ha ([1]; 336 h, 5 g a.i./ha, 14 DAA, read-out: Plant Terminal (Top 15.3-cm) Regrowth Inhibition (%)): 100%
inhibition at 10 g/ha ([1]; 336 h, 10 g a.i./ha, 14 DAA, read-out: Plant Stalk (Below 15.3-cm) Regrowth Inhibition (%)): 100%
inhibition at 10 g/ha ([1]; 336 h, 10 g a.i./ha, 14 DAA, read-out: Plant Terminal (Top 15.3-cm) Regrowth Inhibition (%)): 100%
inhibition at 20 g/ha ([1]; 336 h, 20 g a.i./ha, 14 DAA, read-out: Plant Stalk (Below 15.3-cm) Regrowth Inhibition (%)): 100%
inhibition at 20 g/ha ([1]; 336 h, 20 g a.i./ha, 14 DAA, read-out: Plant Terminal (Top 15.3-cm) Regrowth Inhibition (%)): 100%
inhibition at 5 g/ha ([1]; 528 h, 5 g a.i./ha, 22 DAA, read-out: Plant Stalk (Below 15.3-cm) Regrowth Inhibition (%)): 100%
inhibition at 10 g/ha ([1]; 528 h, 10 g a.i./ha, 22 DAA, read-out: Plant Stalk (Below 15.3-cm) Regrowth Inhibition (%)): 100%
inhibition at 20 g/ha ([1]; 528 h, 20 g a.i./ha, 22 DAA, read-out: Plant Stalk (Below 15.3-cm) Regrowth Inhibition (%)): 100%
regrowth inhibition, addition of Compound 4 compared to ethephon, ethephon+AMADS or tribufos alone [1, 5]: dramatically increased
inhibition of basal and terminal regrowth [1, 4]: effective for inhibiting both basal and terminal regrowth
State of Defoliation (%) ([2]; 5 g a.i./ha, 4 DAA): 3%
State of Defoliation (%) ([2]; 5 g a.i./ha, 7 DAA): 4%
State of Defoliation (%) ([2]; 5 g a.i./ha, 14 DAA): 10%
State of Defoliation (%) ([2]; 10 g a.i./ha, 4 DAA): 3%
State of Defoliation (%) ([2]; 10 g a.i./ha, 7 DAA): 4%
State of Defoliation (%) ([2]; 10 g a.i./ha, 14 DAA): 11%
State of Defoliation (%) ([2]; 20 g a.i./ha, 4 DAA): 4%
State of Defoliation (%) ([2]; 20 g a.i./ha, 7 DAA): 9%
State of Defoliation (%) ([2]; 20 g a.i./ha, 14 DAA): 15%
inhibition at 5 g/ha ([2]; 5 g a.i./ha, 14 DAA, read-out: Plant Stalk (Below 15.3-cm) Regrowth Inhibition (%)): 100%
inhibition at 5 g/ha ([2]; 5 g a.i./ha, 14 DAA, read-out: Plant Terminal (Top 15.3-cm) Regrowth Inhibition (%)): 97%
inhibition at 10 g/ha ([2]; 10 g a.i./ha, 14 DAA, read-out: Plant Stalk (Below 15.3-cm) Regrowth Inhibition (%)): 100%
inhibition at 10 g/ha ([2]; 10 g a.i./ha, 14 DAA, read-out: Plant Terminal (Top 15.3-cm) Regrowth Inhibition (%)): 100%
inhibition at 20 g/ha ([2]; 20 g a.i./ha, 14 DAA, read-out: Plant Stalk (Below 15.3-cm) Regrowth Inhibition (%)): 100%
inhibition at 20 g/ha ([2]; 20 g a.i./ha, 14 DAA, read-out: Plant Terminal (Top 15.3-cm) Regrowth Inhibition (%)): 100%
regrowth inhibition, addition of Compound 4 compared to ethephon, ethephon+AMADS or tribufos alone [2, 5]: dramatically increased
inhibition of basal and terminal regrowth [2, 4]: effective for inhibiting both basal and terminal regrowth

CCCCSP(=O)(SCCCC)SCCCC [Tribufos, S,S,S-tributylphosphorotrithioate, reference compound]
Boll Opening (%) ([3]; 4 DAA): 70%
Desiccation (%) ([3]; 4 DAA): 32%
State of Defoliation (%) ([3]; 4 DAA): 68%
Boll Opening (%) ([3]; 11 DAA): 78%
Desiccation (%) ([3]; 11 DAA): 8%
State of Defoliation (%) ([3]; 11 DAA): 80%
State of Defoliation (%) ([3]; 21 DAA): 35%
inhibition at 841 g/ha ([3]; Gossypium hirsutum, 504 h, read-out: Regrowth Inhibition (%)): 25%
State of Defoliation (%) ([1]; 421 g a.i./ha, 4 DAA): 49%
State of Defoliation (%) ([1]; 421 g a.i./ha, 7 DAA): 76%
State of Defoliation (%) ([1]; 421 g a.i./ha, 14 DAA): 81%
inhibition at 421 g/ha ([1]; 336 h, read-out: Plant Stalk (Below 15.3-cm) Regrowth Inhibition (%)): 84%
inhibition at 421 g/ha ([1]; 336 h, read-out: Plant Terminal (Top 15.3-cm) Regrowth Inhibition (%)): 47%
inhibition at 421 g/ha ([1]; 528 h, read-out: Plant Stalk (Below 15.3-cm) Regrowth Inhibition (%)): 29%
State of Defoliation (%) ([2]; 421 g a.i./ha, 4 DAA): 50%
State of Defoliation (%) ([2]; 421 g a.i./ha, 7 DAA): 56%
State of Defoliation (%) ([2]; 421 g a.i./ha, 14 DAA): 53%
inhibition at 421 g/ha ([2]; read-out: Plant Stalk (Below 15.3-cm) Regrowth Inhibition (%)): 81%
inhibition at 421 g/ha ([2]; read-out: Plant Terminal (Top 15.3-cm) Regrowth Inhibition (%)): 44%
